Experimental data from US11911411B2, “Sulfated glycosaminoglycan biomaterials as proteoglycan mimics” (Glycologix, LLC, priority 2020, dated 2024).

Tested on: bladder permeability in LPS-treated URO-MCP-1 mice
Assay: CE-MRI (Gd-DTPA) assessment of bladder permeability, LPS-treated URO-MCP-1 transgenic mouse model of IC/BPS
Assay type: in vivo
Settings: 20 mg/ml, 100 μl
Experimental: The URO-MCP-1 transgenic model was described previously. Cystitis with accompanying permeability were induced by intravesical administration of LPS at a sub-noxious dose of 1 jig of LPS in 100 μl of saline (Day 0, 9 a.m.). One control group was administered saline (100 μl) only (saline URO-MCP-1). Another control group consisting of wild-type (WT) mice was also administered saline only (saline-WT). Bladders were flushed 3 times with saline to remove any excess LPS 1 hour post-LPS injection. The next day (Day 1, 9 am) animals were treated with CS or SuperGAG (20 mg/ml in saline; 100 μl) or saline and the initial permeability was assessed 3 hours later (Day 1, 12:00 p.m.).
For MRI assessment of permeability, mice were anesthetized and treated as described above, but instead of euthanizing the mice, on Day 1, Day 3, and Day 5 the mice were anesthetized, instilled with the contrast agent Gd-DTPA and placed into the MRI instrument. MRI experiments were conducted on a 7 Tesla 30 cm-bore Bruker Biospec MRI system (Bruker Biospin Corporation, Woodlands, TX, U.S.A.). MRI scans were obtained at 1-, 3-, and 5-days following LPS instillation. For the bladder images, Gd-DTPA (0.034 mM Gd-DTPA diluted to 100 μl in saline), was administered via an intravesical catheter, for visualization of loss of permeability of the bladder urothelium. Bladder CE-MRI signal intensity changes were determined 7 minutes. post-contrast. For all MR images, a T1-weighted RARE (rapid acquisition with relaxation enhancement) MRI pulse sequence was used with the following parameters: repetition time (TR) of 1200 ms, echo time (TE) of 9 ms, a RARE factor of 4, 4 averages, an image slice thickness of 1 mm, a matrix of 256×256, a field-of-view (FOV) of 3.5×3.5 cm2, and with both motion and fat suppression. Animals were euthanized and the bladders placed in formalin for histopathology.

## chondroitin sulfate [CS]
Day 1, *p< (figure not given)
  percent change in MRI signal intensity versus LPS-treated URO-MCP-1 mice, day 1: significant decrease
Day 3, ***p<0.0001 for both
  percent change in MRI signal intensity versus LPS-treated URO-MCP-1 mice, day 3: significant decrease
Day 5, **p<0.01 for SuperGAG
  percent change in MRI signal intensity versus LPS-treated URO-MCP-1 mice, day 5: not significantly different to control
